According to patent publication US20080300298A1, “Honokiol Derivates For the Treatment of Proliferative Disorders” (priority 2005, published 2008):

Key:
SVR cells = test: apoptosis of SVR cells; format: cell-based; conditions: 18 and 48 h
Procedure: FIG. 13 illustrates the effect of honokiol and magnolol on apoptosis. The light columns represent SVR cells treated with magnolol, and the dark columns represent SVR cells treated with honokiol. The control lanes represent cells immediately after treatment compared with 18 and 48 h of treatment.

AMP kinase in PC3 cells = test: AMPK activation (Western blot); format: cell-based, human; conditions: normoxic and hypoxic conditions
Procedure: Bharti, A. C. et al (2004) Blood 103, 3175-3184; Arbiser, J. L et al (1998) Mol. Med. 4, 376-383; Woods, A. et al (2003) Current Biology 13, 2004-2008; Shaw, R. J. et al (2004) PNAS 101, 3329-3335; Buzzai, M. et al (2005) Oncogene 24, 4165-4173). […] PC3 cells were treated with honokiol in normoxia (left) or hypoxia (right). In both cases, HIF-1a induction is dose dependent, and in the case of hypoxia, at least additive. Compounds can be tested on the p53 deficient PC3 human prostate cancer cell line, to see whether treatment results in activation of AMPK as in FIG. 20. PC3 cells can be treated with compound or vehicle for 24 hours, then proteins harvested and analyzed by Western blot for phosphorylation of the alpha subunit of AMPK, a marker of AMPK activation. In addition, phosphorylation of a substrate of AMPK, acetyl CoA carboxylase (ACC) can be monitored by Western blot.

heart AMPKK = test: direct activation of AMPKK in vitro; format: biochemical
rat papillary muscles = test: glucose uptake by insulin
MCF-7 cells = test: Apoptosis analysis (annexin V and PI); format: cell-based; conditions: MCF-7, 60 μM, 24 hours (control 1%±0.5%)
Procedure: Apoptosis analysis: 5×10^6 cells were placed in the appropriate culture media containing 10% FCS, and treated with either control vehicle or various concentrations of HNK, as indicated for 24 h. Following treatment, cells were harvested, and stained with PI and Annexin V, using the Annexin V-PE Apoptosis Detection Kit I (BD Pharmingen, San Diego, Calif.) according to the manufacturer protocol. Flow cytometry was performed at the Flow Cytometry Core facility of Cedars-Sinai Medical Center, using FACScan (Becton Dickinson, Franklin Lakes, N.J.). For studies using z-VAD-fmk to inhibit caspase activity, 5×10^6 cells were incubated with 50 μM z-VAD-fmk for 60 minutes prior to addition of HNK.
HNK induces apoptosis in breast cancer cell lines. […] The ability of HNK to induce apoptosis and cell death in breast cancer cell lines was investigated. MCF-7 cells were treated with HNK (60 μM for six or 24 hours) and apoptosis and cell death were assessed using annexin V and PI staining (FIG. 5 A). […] Upregulation of BAX was also noticed, (85% increase at 40 μM compared to control, as analyzed by densitometry) but no significant changes in BCL-2 or BAD levels were observed. Only partial inhibition of apoptosis was observed following pretreatment with z-VAD-fmk.

[1] = tested on: apoptosis-related proteins in MCF-7 cells; test: Western blot of apoptosis-related proteins; format: cell-based; conditions: 24 h
Procedure: Following treatment, the cells were harvested and stained for PI and annexin V, as described in Example 9. (B) is a bar graph in which the results of three independent experiments (HNK 60 μM, 24 h) are shown. Asterix indicates p<0.05. (C) is a series of photographs of the Western blots in which MCF-7 cells were treated with HNK (20 or 40 μM, 24 h), lysed and analyzed by Western blotting for the expression of apoptosis-related proteins.
Western blot analysis: Cells were harvested and lysed for total protein extraction in a buffer containing 50 mM Tris-Cl pH 7.4, 150 mM NaCl and 2% NP-40 together with a protease inhibitor cocktail (Comp). […] Immunoactivity was detected with horseradish peroxidase-conjugated secondary antibody and visualized by Enhanced Chemiluminescence (Pierce, Rockford, Ill.). Quantification of the results was performed using AlphaImager 2000 (Alpha Innotech, San Leandro, Calif.).
HNK induces apoptosis in breast cancer cell lines. […] MCF-7 cells were treated with HNK (60 μM for six or 24 hours) and apoptosis and cell death were assessed using annexin V and PI staining (FIG. 5 A). […] Upregulation of BAX was also noticed, (85% increase at 40 μM compared to control, as analyzed by densitometry) but no significant changes in BCL-2 or BAD levels were observed. […]

[2] = tested on: collagen induced arthritis (CIA); test: collagen induced arthritis (CIA); format: in vivo, C57Bl/6 and LMP1 transgenic mice; conditions: 3 mg/mouse/day i.p. from day 21 post-immunization
Procedure: Female mice expressing the mCD40-LMP1 transgene (on a CD40−/− background) were bred in our transgenic mouse facility. Mice were either left naïve, immunized in the tail s.c. with […] Type II Chicken Collagen (Sigma) dissolved in 10 mM acetic acid and emulsified in IFA (Sigma) containing 5 mg/ml H37 RA heat-killed mycobacteria (Difco) (CFA), or immunized with 10 mM acetic acid emulsified in CFA. Some of the mice were injected i.p. with 3 mg/mouse/day honokiol suspended in 20% Intralipid, starting at day 21 post-immunization.

NFkB in M12.4.1 cells = test: NFkB activation (luciferase assay); format: cell-based, Mouse; conditions: M12.4.1 cells transfected with hCD40-LMP1; not necessarily to baseline
Procedure: Mouse M12.4.1 cells (1.5×107), stably transfected with hCD40-LMP1 chimeric molecule were transiently transfected with […] 4×NFkB luciferase reporter plasmid and […] Renilla luciferase vector (pRL-null; Promega, Madison, Wis.) by electroporation. Cells (2×10^6 cells/ml) were rested on ice for 15 minutes, treated with medium alone (BCM), 10 mg/ml anti-TNF-a (MP6-XT3; MP6-XT22), or […] Honokiol for 30 minutes, then incubated an additional 6 hours in the presence of BCM, 10 mg/ml anti-(m)ouse or anti-(h)uman CD40 or isotype controls. After stimulation, cells were pelleted, lysed, and assayed for relative luciferase activity (NFkB: Renilla) per manufacturer's protocol (Promega) using a Turner Designs 20/20 luminometer, with settings of 2 second delay followed by 10 second read. (Note: anti-mCD40 reacts with endougenous CD40 and anti-hCD40 reacts with transfected hCD40-LMP1).

KBM-5 cells = conditions: KBM-5, 72 h, with TNF, paclitaxel or doxorubicin
Procedure: KBM-5 cells (5000 cells/0.1 ml) were incubated at 37° C. with TNF, paclitaxel or doxorubicin in the presence and absence of 5 mM honokiol as indicated for 72 h, and the viable cells were assayed using the MTT reagent. The results are expressed as mean cytotoxicity ±SD from triplicate cultures.
Cytotoxicity assay Cytotoxicity was assayed by the modified tetrazolium salt 3-(4-5-dimethylthilozol-2-yl)-2-5-diphenyl-tetrazolium bromide (MTT) assay as described previously (Bharti, A. C., et al. 2004 J. Biol. Chem. 279:6065-6076).
The effect of honokiol on TNF and chemotherapeutic agent-induced apoptosis was examined by the MTT assay.

SMILES: C=CCc1ccc(O)c(-c2ccc(O)c(CC=C)c2)c1 [HNK, Honokiol]
- induction of apoptosis compared with magnolol (SVR cells): more effective in the induction of apoptosis than magnolol
- phosphorylation (activation) of AMP kinase (AMP kinase in PC3 cells): increased phosphorylation (activation) of AMP kinase
- direct activation of heart AMPKK (heart AMPKK): does not directly activate heart AMPKK in vitro
- glucose uptake by insulin (rat papillary muscles): potentiates glucose uptake by insulin
- annexin V-positive, PI-negative cells (MCF-7 cells): 16%±3%
- Upregulation of BAX (densitometry), increase compared to control ([1]; MCF-7, 40 μM): 85%
- PARP and caspase 8 levels ([1]; MCF-7, 20 or 40 μM): degradation of poly (ADP-ribose) polymerase (PARP) and decreased levels of caspase 8
- collagen induced arthritis (CIA) pathology [2]: stablizes collagen induced arthritis (CIA) pathology
- NFkB activation (luciferase assay) (NFkB in M12.4.1 cells): inhibited by honokiol in a dose dependent manner
- cytotoxic effects of TNF and chemotherapeutic agents (MTT) (KBM-5 cells): enhanced the cytotoxic effects of TNF, paclitaxel, and doxorubicin
